Measured values from patent publication US20060062846A1, “Alfuzosin tablets and synthesis” (Cimex Pharma AG, priority 2004, published 2006).
Where a name gives a salt, the structure may show the parent alone.

Assays:
solubility in water = assay type: physicochemical
[1] = immediate-release tablet, cited from earlier work

For `COc1cc2nc(N(C)CCCNC(=O)C3CCCO3)nc(N)c2cc1OC` (racemic) [alfuzosin hydrochloride, (R,S)-N-(3-(4-amino-6,7-dimethoxy-2-quinazolinyl)methylamino) propyl) tetrahydro-2-furancarboxamide hydrochloride], the solubility in water (solubility in water) is listed as “freely soluble in water”, the “Peak plasma concentrations reached after administration (time)” value [1] is listed as at most 1 h and the “inter-individual fluctuations in plasma concentrations” value [1] is listed as “sevenfold”. For the same compound, the Terminal elimination half-life ([1]; range printed (1-10 h)) was “approximately 5 h” and the Bioavailability ([1]; range printed (45-90%)) was 64%.
